Test results reported in US10039798B2, “Extracts of rosemary or hemerocallis fulva and methods of using same to promote circadian rhythm” (IN Ingredients, Inc., priority 2013, dated 2018).

Experiments:
Type in all cases: cell-based, Porcine
Settings in all cases: 1 μM, 5 μM or 20 μM, 24 hr at 37° C.
SIRT1 = SIRT1 immunofluorescence in iPEC-1 cells treated with ursolic acid
Procedure: (§1) iPEC-1 cells were grown as a monolayer in DMEM with 10% fetal bovine serum (FBS) and the necessary supplements at 37° C. in a humidified incubator with 5% CO2. iPEC1 cells were seeded on 35 mm dishes. Experiments were initiated 48 hr after plating. Cells were treated with saline or with ursolic acid at three separate dosages (1 μM; 5 μM; or 20 μM) in the medium for 24 hr at 37° C. The cells were then washed with ice-cold PBS and fixed with 4% paraformaldehyde for 10 min at room temperature followed by permeabilization with 0.3% Triton X-100 for 10 min. After being washed with PBS three times, cells were incubated for 1 hr in PBS containing 10% normal goat serum blocking solution. The cells were subjected to immunofluorescence staining with the target specific antibodies (SIRT1, CLOCK and Bmal1) overnight at 4° C. The cells were then washed with cold PBS three times for 3 min each, and incubated with Alexa-labeled secondary antibodies (Invitrogen) at room temperature for 1 h. The cells were examined by fluorescence microscopy (a Nikon TE2000-S microscope, Nikon, Tokyo, Japan).

Bmal1 = Bmal1 immunofluorescence in iPEC-1 cells treated with ursolic acid
Procedure: as §1

CLOCK = CLOCK immunofluorescence in iPEC-1 cells treated with ursolic acid
Procedure: as §1

C[C@H]1[C@H](C)CC[C@]2(C(=O)O)CC[C@]3(C)C(=CC[C@@H]4[C@@]5(C)CC[C@H](O)C(C)(C)[C@@H]5CC[C@]43C)[C@H]12 [ursolic acid]
intensity of immunofluorescence of SIRT1 compared with controls (SIRT1): significantly induced the intensity of immunofluorescence | intensity of immunofluorescence of Bmal1 compared with controls (Bmal1): significantly induced the intensity of immunofluorescence | intensity of immunofluorescence of CLOCK compared with controls (CLOCK): significantly induced the intensity of immunofluorescence
